# Laboratory results published in patent publication US20190169669A1, “[…] OF […] IDENTIFICATION OF NATURAL LIGAND OF SAID RECEPTOR AND USES THEREOF” (Institut National de la Recherche Agronomique, priority 2016, published 2019).
# System: SlitOR5
# Experiment: Single-sensillum recordings on Drosophila at1 olfactory neurons expressing SlitOR5
# Assay type: cell-based, Spodoptera littoralis
# Conditions: for significance of response versus solvent alone: n=7, Kruskal-Wallis ANOVA with Dunn's post-hoc test
# Procedure: SlitOR5 can be heterologously expressed in vivo in an organism, for example Drosophila melanogaster, using transgenesis (e.g. the Gal4-UAS system in D. melanogaster). SlitOR5 can be expressed in a large part of the endogenous olfactory sensory neurons (OSNs) of the organism (for instance using the ORco promotor) or in a given subset of the OSN population. The modified responses of the antenna or of the targeted OSNs are then recorded using, respectively, electroantennography (EAG) and single sensillum recording (SSR). Some D. melanogaster mutant lines may be used to replace a native Drosophila OR with SlitOR5, such as the ab3A mutant line which allows for expression of SlitOR5 in ORNs usually expressing DmelOR22a (Hallem et al., Cell 2004, 117(7):965-979), and the DmelOr67dGAL4 mutant knock-in line, which allows for expression of SlitOR5 in place of DmelOR67d, in the unique OSN of the atl Drosophila sensilla (Kurtovic et al. Nature 2007, 446(7135):542-546). The candidate agent activity is measured as the antenna depolarization (EAG) or the number of action potential (SSR) generated by stimulation of an air flow containing the candidate agent (typically from 0.1 μg to 100 μg of the candidate agent loaded in the stimulation cartridge). Depolarization and action potential number are compared, respectively, to depolarization and action potential number generated by the agent solvent alone.
# The transformant UAS-SlitOR5 balanced fly line was generated by BestGene Inc. (Chino Hills, Calif., USA), using the PhiC31 integrase system. Briefly, recombinant pUAST.attB-SlitOR5 plasmids were injected into embryos of a D. melanogaster line containing an attP insertion site within the second chromosome (genotype y1 M{vas-int.Dm}ZH-2A w*; M{3×P3-RFP.attP′}ZH-51C), leading to non-random integration. To drive expression of SlitOR5 in neurons housed in atl sensilla, the transformant UAS-SlitOR5 line was crossed to a line carrying the mutant knock-in allele Or67d^GAL4 (kindly provided by Dr. Barry Dickson, IMP, Vienna, Austria) to generate a double homozygous line w;UAS-SlitOr5;Or67d^GAL4. Flies were reared on standard cornmeal-yeast-agar medium and kept in a climate- and light-controlled environment (25° C., 12:12 light:dark cycle). The presence of the UAS-SlitO5 transgene was verified by PCR on genomic DNA extracted from two flies, and the expression of SlitOR5 in fly antennae was verified by RT-PCR on total RNA extracted from >100 pairs of antennae.
# The response spectrum of SlitOR5 was tested by means of single-sensillum recordings on flies expressing the SlitOR5 transgene in atl neurons, instead of the endogenous receptor DmelOR67d. Two- to 10-day-old male flies were restrained in a plastic pipette tip with only the head protruding from the narrow end. The pipette tip was fixed with dental wax on a microscope glass slide with the ventral side of the fly facing upward. Then, the antenna was gently placed on a piece of glass slide and maintained by placing a glass capillary between the 2nd and 3rd antennal segments. Afterwards, the slides were placed under a light microscope (BX51WI, Olympus, Tokyo, Japan) equipped with a 100× magnification objective. Desiccation of the flies was avoided thanks to a constant 1.5 L·min^−1 flux of charcoal-filtered and humidified air, delivered through a glass tube of a 7 mm diameter, which terminated ca. 1.5 cm from the antenna.
# Stimulation cartridges were built by placing a 1 cm^2 filter paper in the large opening end of a Pasteur pipette and dropping 10 μl of an odorant solution onto the paper before closing the pipette with a 1 mL plastic pipette tip. A screening panel of 26 pheromone compounds (see Table 1 for detail) were used at a 1 μg/μl dilution in hexane (10 μg deposited on the filter paper). Pipettes with filter papers containing 10 μL of solvent were used as controls. […]
# [1] = response spectrum screen, 10 μg loaded in the stimulus cartridge
SMILES,significance of response versus solvent alone [1],"response of at1 neurons (firing rate), dose-response (dose 1 μg loaded on the stimulus cartridge, n=5)","response of at1 neurons (firing rate), dose-response (dose 10 μg loaded on the stimulus cartridge, n=5)","mean net response (firing rate) of SlitOR5-expressing neurons (response spectrum screen, 10 μg loaded in the stimulus cartridge, 500 ms air pulse, n=7, w;UAS-SlitOr5;Or67d^GAL4 flies)","response of at1 neurons versus solvent alone, dose-response (the two lower doses (dose range 0.01 μg to 10 μg), n=5)"
"CC/C=C\CCCCCCCCOC(C)=O [Z9-12:OAc, (Z)-9-dodecenyl acetate]",not significant,,,,
"CC/C=C\C=C/CCCCCCCCOC(C)=O [Z9,Z11-14:OAc, (Z,Z)-9,11-tetradecadienyl acetate]",not significant,,,,
"CCCC/C=C\CCCCCCCCOC(C)=O [Z9-14:OAc, (Z)-9-tetradecenyl acetate]",not significant,,,,
"CC/C=C/C=C\CCCCCCCCOC(C)=O [Z9,E11-14:OAc, (Z,E)-9,11-tetradecadienyl acetate]",significant response,15 spikes·s^−1,43 spikes·s^−1,75 spikes·s^−1,did not significantly differ
